Laboratory results from PubChem BioAssay (NCI).
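Results reflect a 48-hour exposure of cells in 96-well plates to compound at five concentrations. At the TGI there is no net growth.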

Key:
Assay in all cases: NCI anticancer screen, dose series, 48 h
[1] = tested on: OVCAR-5 ovarian
[2] = tested on: CAKI-1 renal
[3] = tested on: T-47D breast
[4] = tested on: NCI-H23 lung
[5] = tested on: SNB-19 CNS
[6] = tested on: MDA-MB-435
[7] = tested on: SF-539 CNS
[8] = tested on: RXF 393 renal
[9] = tested on: M14 melanoma
[10] = tested on: LOX IMVI melanoma

| Structure (SMILES) | TGI [1] [µM] | TGI [2] [µM] | TGI [3] [µM] | TGI [4] [µM] | TGI [5] [µM] | TGI [6] [µM] | TGI [7] [µM] | TGI [8] [µM] | TGI [9] [µM] | TGI [10] [µM] |
| --- | --- | --- | --- | --- | --- | --- | --- | --- | --- | --- |
| CC(C)(NC1=NCCO1)c1ccccc1 | > 100 | > 100 | > 100 | > 100 | > 100 | > 100 | > 100 | > 100 | > 100 | > 100 |
| CC(C)C(C/C=C1\CC(CO)(COC(=O)CC(C(C)C)C(C)C)OC1=O)C(C)C (stereo not given) | 26.9 | 20.3 | 30.7 | 29 | 26.5 | 19.7 | 33 | 28.4 | 24.6 | 27.3 |
| CC1CCC2(CC1)N=C1CCC(C)CC1C1(CCC(C)CC1)N2 (stereo not given) | > 100 | > 100 | > 100 | > 100 | > 100 | > 100 | > 100 | > 100 | > 100 | > 100 |
| COc1nc2[nH]ccc2c(=O)n1C | > 100 | 57.6 |  | > 100 | > 100 |  | > 100 | > 100 | > 100 | > 100 |
| CS(=O)(=O)O.[Ag] | 35 | 34.2 | 5.5 | 46.2 | 78.7 | 9.78 | 32.1 | 42 | 9.44 | 73.9 |
| CN(C)CCn1c(=O)c2ccc3c4c(nn3CCN(C)C)c3ccccc3n(c1=O)c24 | 2.89 | 0.52 | 3.74 | 1.42 | 3.75 | 1.39 | 2.2 | 1.26 | 1.18 | 1.38 |
| O=[N+]([O-])c1ccc(Cl)cc1C=NC12CC3CC(CC(C3)C1)C2 | > 100 | > 100 | > 93.8 | 98.1 | > 100 | > 100 | > 86.7 | 97.6 | > 100 | > 70.3 |
| C/C(N=Nc1nc2ccccc2o1)=C1/C=CC=CN1O | 28.1 | 29 | > 100 | > 100 | > 100 | > 100 | 62 | > 100 | > 100 | > 100 |
| Clc1ncnc2c1ncn2CCCCCCCCCCCCn1cnc2c(Cl)ncnc21 | 72.7 | 7.68 |  | 10.8 | 27.8 |  | 27.8 | 32.2 | 29.6 | 7.19 |
| COC(=O)CCN(CCC(=O)OC)C1CC1 | > 100 |  | > 100 | > 100 | > 100 | > 100 | > 100 | > 100 | > 100 | > 100 |
| O=C1C(N=Nc2ccc(-c3nc4ccccc4[nH]3)cc2)NC(=S)N1c1ccccc1 (stereo not given) | > 100 | > 100 | 62.8 | > 100 | > 100 | > 100 | > 100 | 47.3 | > 100 | 39.4 |
